Reference: patent publication US9289509B2, “Uses of immunoconjugates targeting CD138” (Biotest AG, priority 2009, dated 2016)

Key:
[1] = cited from earlier work
[2] = system: MOLP-8 human multiple myeloma xenografts; assay: MOLP-8 xenograft in CB.17 SCID mice, single bolus iv (Xenograft Mouse Experiments A, Part I); assay type: in vivo; conditions: nBT062 […], all others 250 μg/kg (maytansinoid)
Description: The conjugates were evaluated in a CD138-positive xenograft model (MOLP-8) of human multiple myeloma in severe combined immunodeficient (SCID) mice.
In these mice, subcutaneous tumors were established (female CB.17 SCID mice) by inoculation with MOLP-8 cell suspensions. Treatment with a single bolus intravenous injection was conducted when tumor volumes reached an average 113 mm^3. Changes in tumor volume and body weight were monitored twice per week.
Each mouse was inoculated with 1×10^7 MOLP-8 cells subcutaneously into the area under the right shoulder. The total volume was 0.2 ml per mouse, in which the ratio of serum-free medium to matrigel (BD Bioscience, Bedford, Mass.) was 1/1 (v/v). Prior to treatment, the xenograft tumors were monitored daily and were allowed to become established.
Eleven days after tumor cell inoculation, 42 mice were selected based on tumor volumes and body weights. […] The forty-two mice were randomly divided into seven groups (A-G) of six animals each based on tumor volume.
Each of six mice in Group A received 200 μl of PBS as vehicle control.
All agents were intravenously administered as a single bolus injection through a lateral tail vein with a 1 ml syringe fitted with a 27 gauge, ½ inch needle.

[3] = system: RPMI 8226; assay: Combination with BT062 in cell lines (Chou and Talalay median effect analysis); assay type: cell-based; conditions: RPMI 8226 cells
Description: Combination studies in xenograph mouse models were preceded by studies in cell lines. […] Here, IC50 values for the cytotoxic effects for each drug and each cell line are calculated, and then IC50 ratios for each drug pair. The cells were then exposed to dilution series of either these drug mixtures, or the drugs alone. Experimental data were analyzed using the CompuSyn software (ComboSyn, Inc., Paramus, N.J.). Combination Indexes (CI) for each independent experiment were calculated and reported separately. In the analysis, CI less than 1, equal to 1 and more than 1 indicates synergy, additivity and antagonism, respectively. According to the classification of T. C.

[4] = system: MOLP8; assay: as above; assay type: cell-based, human; conditions: MOLP8 cells
[5] = system: MOLP8 multiple myeloma cells; assay: MOLP8 xenograft: BT062 and VELCADE combination therapy; assay type: in vivo, mouse; conditions: for Fractional tumor volume (FTV): Velcade alone, dosed days 1, 4, 8 and 11
[6] = system: MOLP-8 tumor xenografts; conditions: 450 μg/kg dose; mean time to reach 160 mm^3 minus control
[7] = system: CD56-positive multiple myeloma; conditions: 1 patient each at 60, 90 and 112 mg/m^2/week; heavily pretreated; cited from earlier work
[8] = Velcade 1 mg/kg days 1, 4, 8, 11

COc1cc2cc(c1Cl)N(C)C(=O)C[C@H](OC(=O)[C@H](C)N(C)C(=O)CCS)[C@]1(C)O[C@H]1[C@H](C)[C@@H]1C[C@@](O)(NC(=O)O1)[C@H](OC)/C=C/C=C(\C)C2 [DM1, N^2-deacetyl-N^2-(3-mercapto-1-oxopropyl)-maytansine]
cytotoxicity relative to maytansine ([1]; more cytotoxic than maytansine): 3- to 10 fold

COc1cc2cc(c1Cl)N(C)C(=O)C[C@H](OC(=O)[C@H](C)N(C)C(=O)CCC(C)(C)S)[C@]1(C)O[C@H]1[C@H](C)[C@@H]1C[C@@](O)(NC(=O)O1)[C@H](OC)/C=C/C=C(\C)C2 [DM4, N^2′-deacetyl-N^2′-(4-methyl-4-mercapto-1-oxopentyl)-maytansine, reference compound]
effect on tumor growth [2]: did not cause any significant inhibition of tumor growth

Nc1cccc2c1CN(C1CCC(=O)NC1=O)C2=O (centres unmarked) [Lenalidomide]
estimate of synergy, drug combined with BT062 [3]: Synergistic

O=C1CCC(N2C(=O)c3ccccc3C2=O)C(=O)N1 (stereo not drawn) [Thalidomide, α-(N-phthalimido) glutarimide]
estimate of synergy, drug combined with BT062 [4]: antagonistic effect

CC(C)C[C@H](NC(=O)[C@H](Cc1ccccc1)NC(=O)c1cnccn1)B(O)O [Velcade, reference compound]
estimate of synergy, drug combined with BT062 ([4]; listed as Bortezomib): Slightly antagonistic | estimate of synergy, drug combined with BT062 ([4]; listed as bortezomib): antagonistic effect | effect on tumor volume ([5]; VELCADE treatment alone (FIG. 29)): no effect on the tumor volume | (T-C) [5, 8]: 0.5 days | Regressions Complete [5, 8]: 0/6 | Regressions Partial [5, 8]: 0/6 | Result [5, 8]: Inactive | T/C (%) [5, 8]: 100% | Tumor free survivors day 67 [5, 8]: 0/6 | log cell kill [5, 8]: 0.0 | Fractional tumor volume (FTV) ([5]; day 14): 0.84 | Fractional tumor volume (FTV) ([5]; day 18): 0.96 | Fractional tumor volume (FTV) ([5]; day 21): 0.80 | Fractional tumor volume (FTV) ([5]; day 25): 0.95 | combination effect with BT062 in xenograft model ([5]; day 25, all BT062 dose regimens): synergistic

COc1cc2cc(c1Cl)N(C)C(=O)C[C@H](OC(=O)[C@H](C)N(C)C(C)=O)[C@]1(C)O[C@H]1[C@H](C)[C@@H]1C[C@@](O)(NC(=O)O1)[C@H](OC)/C=C/C=C(\C)C2 [maytansine]
cytotoxicity relative to Vinca alkaloids or taxol ([1]; higher than anti-cancer drugs in clinical use that affect tubulin polymerization): 200-1000 fold

B-B4-SPP-DM1 [reference compound]
effect on tumor growth [2]: marked delay in tumor growth

nBT062-DM1
TGD (tumor growth delay) [6]: 18 days

B1: IMGN901 (conjugate, chains of the INN, looked up)
VH: QVQLVESGGGVVQPGRSLRLSCAASGFTFSSFGMHWVRQAPGKGLEWVAYISSGSFTIYYADSVKGRFTISRDNSKNTLYLQMNSLRAEDTAVYYCARMRKGYAMDYWGQGTLVTVSS
VL: DVVMTQSPLSLPVTLGQPASISCRSSQIIIHSDGNTYLEWFQQRPGQSPRRLIYKVSNRFSGVPDRFSGSGSGTDFTLKISRVEAEDVGVYYCFQGSHVPHTFGQGTKVEIK
modifications: mertansine (DM1) conjugate
patients with confirmed minor response (MR) [7]: 3 patients
